Measurements published in patent publication US11878971B2, “Piperlongumine-based compound and immuno regulator comprising the same” (HUSCION CO., LTD., priority 2020, dated 2024).
Entries after “also recorded” stand apart in the source; their conditions may differ.

Legend:
STAT6 signaling = assay: Reporter gene assay HEK-Blue-IL-4/IL-13; assay type: cell-based; conditions: HEK-Blue-IL-4/IL-13 cells, stimulant interleukin-4; FIG. 14
Protocol: (§1) In the present test example, THP1-Lucia NF-κB, HEK-Lucia RIG-1, HEK-Blue-IL-4/IL-13, and HEK-Blue IL-10 cell lines were purchased from InVivoGen, and evaluated for inhibitory activity on immune cell signaling, and the analysis was performed according to the manufacturer's analysis method. Specifically, the four types of cell lines were treated with each of test substances, which are the piperlongumine-based compounds 1 to 19, and then treated with each of promoter stimulants (LPS, 3p-hpRNA, interleukin-4, and interleukin-10). The response was induced according to the guidelines, and then the activity inhibitory ability was analyzed.
STAT6 is a transcription factor that plays a role in modulating the expression of various cytokines, hormones, and growth factors by signals coming from the outside. IL-4/IL-13 and STAT6 are also important modulator of Th2.

IL-4 gene expression = assay: T cell-dependent cytokine IL-4 gene expression inhibition, splenocytes ex vivo; conditions: Balb/c mouse splenocytes, CD3 monoclonal antibody stimulation; control cyclosporine (CsA); FIG. 8
IL-2 gene expression = assay: T cell-dependent cytokine IL-2 gene expression inhibition, splenocytes ex vivo; conditions: Balb/c mouse splenocytes, CD3 monoclonal antibody stimulation; control cyclosporine (CsA); FIG. 6
IL-17a gene expression = assay: T cell-dependent cytokine IL-17a gene expression inhibition, splenocytes ex vivo; conditions: Balb/c mouse splenocytes, CD3 monoclonal antibody stimulation
IFNγ expression = assay: T cell-dependent cytokine IFNγ gene expression inhibition, splenocytes ex vivo; conditions: Balb/c mouse splenocytes, CD3 monoclonal antibody stimulation; FIG. 7
NF-κB signaling pathway = assay: Reporter gene assay THP1-Lucia NF-κB; assay type: cell-based; conditions: THP1-Lucia NF-κB cells stimulated with LPS; FIG. 11
Protocol: as §1

STAT3 signaling = assay: Reporter gene assay HEK-Blue IL-10; assay type: cell-based; conditions: HEK-Blue IL-10 cells, stimulant interleukin-10; FIG. 13
Protocol: as §1

RIG1 = assay: Reporter gene assay HEK-Lucia RIG-1; assay type: cell-based; conditions: HEK-Lucia RIG-1 cells, stimulant 3p-hpRNA; FIG. 12
Protocol: as §1

SMILES	STAT6 activity inhibitory effect (STAT6 signaling)	IL-4 gene expression inhibitory activity (IL-4 gene expression)	IL-2 gene expression inhibitory activity (IL-2 gene expression)	IL-17a gene expression inhibitory activity (IL-17a gene expression; control cyclosporine (CSA), FIG. 10)	IL-17a gene expression inhibitory activity, fold higher compared with Compound 3 (IL-17a gene expression; relative to Compound 3)	IL-17a gene expression inhibitory activity, fold higher compared with Compound 9 (IL-17a gene expression; relative to Compound 9)	inhibitory ability on Th1-derived IFNγ expression (IFNγ expression)	NF-κB activity inhibitory effect (NF-κB signaling pathway)	STAT3 activity inhibitory effect (STAT3 signaling)	RIG1 activity inhibitory effect (RIG1)
COC(=O)c1cc(/C=C/C(=O)N2CCC=CC2=O)ccc1OC [Compound 1, (E)-methyl-2-methoxy-5-(3-oxo-3-(2-oxo-5,6-dihydropyridin-1(2H)-yl)prop-1-en-1-yl)benzoate]	very high STAT6 activity inhibitory ability	IL-4 gene expression inhibitory activity at a significant level equal to or greater than that of cyclosporine; also recorded: effectively inhibit	IL-2 gene expression inhibitory activity at a significant level equal to or greater than that of cyclosporine; also recorded: effectively inhibit	excellent IL-17a expression inhibitory activity compared with cyclosporine	at least 6 fold	at least 3 fold	effectively inhibit	very high NF-κB activity inhibitory ability	very high STAT3 activity inhibitory ability	very high RIG1 activity inhibitory ability
COC(=O)c1cc(/C=C/C(=O)N2CCC=C(Cl)C2=O)ccc1OC [Compound 3, (E)-methyl-5-(3-(3-chloro-2-oxo-5,6-dihydropyridin-1(2H)-yl)-3-oxoprop-1-en-1-yl)-2-methoxybenzoate]	very high STAT6 activity inhibitory ability	IL-4 gene expression inhibitory activity at a significant level equal to or greater than that of cyclosporine; also recorded: effectively inhibit	IL-2 gene expression inhibitory activity at a significant level equal to or greater than that of cyclosporine; also recorded: effectively inhibit	–	–	–	effectively inhibit	very high NF-κB activity inhibitory ability	very high STAT3 activity inhibitory ability	very high RIG1 activity inhibitory ability
COC(=O)c1cc(/C=C/C(=O)N2CCC=C(Br)C2=O)ccc1OC [Compound 9, (E)-methyl-5-(3-(3-bromo-2-oxo-5,6-dihydropyridin-1(2H)-yl)-3-oxoprop-1-en-1-yl)-2-methoxybenzoate]	–	IL-4 gene expression inhibitory activity at a significant level equal to or greater than that of cyclosporine; also recorded: effectively inhibit	IL-2 gene expression inhibitory activity at a significant level equal to or greater than that of cyclosporine; also recorded: effectively inhibit	–	–	–	effectively inhibit	very high NF-κB activity inhibitory ability	very high STAT3 activity inhibitory ability	very high RIG1 activity inhibitory ability
COC(=O)c1cc(/C=C/C(=O)N2CCC=C(Br)C2=O)ccc1O [Compound 10, (E)-methyl-5-(3-(3-bromo-2-oxo-5,6-dihydropyridin-1(2H)-yl)-3-oxoprop-1-en-1-yl)-2-hydroxybenzoate]	–	–	–	–	–	–	–	–	very high STAT3 activity inhibitory ability	very high RIG1 activity inhibitory ability
COC(=O)c1cc(/C=C/C(=O)N2CCC=C(Br)C2=O)ccc1OC(C)=O [Compound 11, (E)-methyl-2-acetoxy-5-(3-(3-bromo-2-oxo-5,6-dihydropyridin-1(2H)-yl)-3-oxoprop-1-en-1-yl)benzoate]	–	IL-4 gene expression inhibitory activity at a significant level equal to or greater than that of cyclosporine	–	–	–	–	–	–	–	–
COC(=O)c1cc(/C=C/C(=O)N2CCC=C(Cl)C2=O)ccc1O [Compound 12, (E)-methyl-5-(3-(3-chloro-2-oxo-5,6-dihydropyridin-1(2H)-yl)-3-oxoprop-1-en-1-yl)-2-hydroxybenzoate]	very high STAT6 activity inhibitory ability	–	–	–	–	–	–	–	very high STAT3 activity inhibitory ability	–
COC(=O)c1cc(/C=C/C(=O)N2CCC=C(Cl)C2=O)ccc1OC(C)=O [Compound 13, (E)-methyl-2-acetoxy-5-(3-(3-chloro-2-oxo-5,6-dihydropyridin-1(2H)-yl)-3-oxoprop-1-en-1-yl)benzoate]	very high STAT6 activity inhibitory ability	–	–	–	–	–	–	–	very high STAT3 activity inhibitory ability	–
O=C(/C=C/c1cccc([N+](=O)[O-])c1)N1CCC=C(Cl)C1=O [Compound 16, (E)-3-chloro-1-(3-(3-nitrophenyl)acryloyl)-5,6-dihydropyridin-2(1H)-one]	very high STAT6 activity inhibitory ability	–	–	–	–	–	–	–	very high STAT3 activity inhibitory ability	–
